Reference: the supplement of paper PMC11061612

Key:
Test in all cases: combination Emax (second highest fraction inhibited in the dose matrix, 72 h); higher = more inhibition; extreme values may be limits of the assay
[1] = system: 8305C (Thyroid Gland Carcinoma)
Procedure, shortened: (§1)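 Cell lines in DMEM/F12 or RPMI with 10% FBS were plated in 1536-well plates, held 24 hours at 37°C, 5% CO2, then given two-drug dose matrices for 72 hours (DMSO typically 0.2%). Viability was read by CellTiter-Glo 2.0 luminescence and scaled as inhibition from 0 (vehicle wells) to 1 (blank wells). Combination Emax is the second-highest inhibition in the matrix; Bliss excess is observed combination effect minus expected EA + EB − EA·EB, EA and EB being single-agent effects.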

[2] = system: CAL-54 (Kidney Carcinoma)
Procedure, shortened: as §1

[3] = system: EN (Endometrial Carcinoma)
Procedure, shortened: as §1

[4] = system: HARA (Squamous Cell Lung Carcinoma)
Procedure, shortened: as §1

[5] = system: HO-1-u-1 (Oral Cavity Carcinoma)
Procedure, shortened: as §1

[6] = system: Hs-633T (Other Solid Carcinomas)
Procedure, shortened: as §1

[7] = system: K5 (Thyroid Gland Carcinoma)
Procedure, shortened: as §1

NB14 (Neuroblastoma) = system: NB14 (Neuroblastoma)
Procedure, shortened: as §1

NCI-H2461 (Mesothelioma) = system: NCI-H2461 (Mesothelioma)
Procedure, shortened: as §1

NCI-H2795 (Mesothelioma) = system: NCI-H2795 (Mesothelioma)
Procedure, shortened: as §1

NCI-H28 (Mesothelioma) = system: NCI-H28 (Mesothelioma)
Procedure, shortened: as §1

[8] = system: NCI-H69 (Small Cell Lung Carcinoma)
Procedure, shortened: as §1

[9] = system: OC-314 (Ovarian Carcinoma)
Procedure, shortened: as §1

[10] = system: PCI-30 (Head and Neck Carcinoma)
Procedure, shortened: as §1

[11] = system: RKO (Colorectal Carcinoma)
Procedure, shortened: as §1

[12] = system: RT-112 (Bladder Carcinoma)
Procedure, shortened: as §1

[13] = system: SK-OV-3 (Ovarian Carcinoma)
Procedure, shortened: as §1

[14] = system: SU-DHL-6 (B-Cell Non-Hodgkin's Lymphoma)
Procedure, shortened: as §1

[15] = system: SUP-T1 (T-Lymphoblastic Leukemia)
Procedure, shortened: as §1

[16] = system: SW1271 (Small Cell Lung Carcinoma)
Procedure, shortened: as §1

Structure (SMILES)	combination Emax [1]	combination Emax [2]	combination Emax [3]	combination Emax [4]	combination Emax [5]	combination Emax [6]	combination Emax [7]	combination Emax (NB14 (Neuroblastoma))	combination Emax (NCI-H2461 (Mesothelioma))	combination Emax (NCI-H2795 (Mesothelioma))	combination Emax (NCI-H28 (Mesothelioma))	combination Emax [8]	combination Emax [9]	combination Emax [10]	combination Emax [11]	combination Emax [12]	combination Emax [13]	combination Emax [14]	combination Emax [15]	combination Emax [16]
Cc1c2c(nn1C)CSCc1cc(n(C)n1)CSc1cc(c3ccccc3c1)OCCCc1c(C(=O)O)n(C)c3c-2c(Cl)ccc13 [AZD5991] + CC(=O)O[C@H]1C(=O)[C@@]2(C)[C@H]([C@H](OC(=O)c3ccccc3)[C@]3(O)C[C@H](OC(=O)[C@H](O)[C@@H](NC(=O)c4ccccc4)c4ccccc4)C(C)=C1C3(C)C)[C@]1(OC(C)=O)CO[C@@H]1C[C@@H]2O [Paclitaxel] (first compound max 1 µM, 7x7, partner max 3 µM)	0.732	0.584	0.878	0.982	0.752	0.95	0.846	1	0.443	0.943	0.469	0.89	0.995	0.394	1	1	0.54	1	0.744	0.472
C[C@@H](Oc1cc(-c2cnn(C3CCNCC3)c2)cnc1N)c1c(Cl)ccc(F)c1Cl [Crizotinib] + CC1=C(C(=CC=C1)Cl)NC(=O)C2=CN=C(S2)NC3=CC(=NC(=N3)C)N4CCN(CC4)CCO [Dasatinib] (first compound max 10 µM, 7x7, partner max 2 µM)	0.843	0.888	0.389	0.757	0.863	1	0.81	0.976	0.594	0.918	0.772	0.771	0.838	0.721	0.771	0.974	0.391	1	0.837	0.714
CN(CCO)CC[C@H](CSc1ccccc1)Nc1ccc(S(=O)(=O)NC(=O)c2ccc(N3CCC([C@@H](O)c4ccccc4-c4ccc(Cl)cc4)CC3)cc2)cc1S(=O)(=O)C(F)(F)F [AZD4320] + CC(=O)O[C@H]1C(=O)[C@@]2(C)[C@H]([C@H](OC(=O)c3ccccc3)[C@]3(O)C[C@H](OC(=O)[C@H](O)[C@@H](NC(=O)c4ccccc4)c4ccccc4)C(C)=C1C3(C)C)[C@]1(OC(C)=O)CO[C@@H]1C[C@@H]2O [Paclitaxel] (first compound max 1 µM, 7x7, partner max 3 µM)	0.846	0.773	0.757	0.999	0.965	1	0.94	1	0.75	0.837	0.823	0.991	1	0.875	1	0.991	0.978	1	0.852	0.927
CC1(C)CCC(CN2CCN(c3ccc(C(=O)NS(=O)(=O)c4ccc(NCC5CCOCC5)c([N+](=O)[O-])c4)c(Oc4cnc5[nH]ccc5c4)c3)CC2)=C(c2ccc(Cl)cc2)C1 [Venetoclax] + CS(=O)(=O)CCNCc1ccc(-c2ccc3ncnc(Nc4ccc(OCc5cccc(F)c5)c(Cl)c4)c3c2)o1 [Lapatinib] (first compound max 1 µM, 7x7, partner max 10 µM)	0.356	0.52	0.288	0.584	0.673	0.213	0.187	0.948	0.268	0.341	0.362	0.724	0.399	0.167	0.325	0.146	0.345	0.975	0.484	0.373
Cc1c2c(nn1C)CSCc1cc(n(C)n1)CSc1cc(c3ccccc3c1)OCCCc1c(C(=O)O)n(C)c3c-2c(Cl)ccc13 [AZD5991] + Nc1ccn([C@@H]2O[C@H](CO)[C@@H](O)C2(F)F)c(=O)n1 [Gemcitabine] (first compound max 1 µM, 7x7, partner max 0.3 µM)	0.374	0.724	0.602	0.81	0.378	0.837	0.544	0.853	0.553	0.869	0.684	0.457	0.917	0.559	0.936	0.834	0.341	1	0.77	0.604
